# Biological target: Human CARM1 (PRMT4) (Homo sapiens (Human), UniProt Q86X55)
# Assay: CARM1 enzyme assay on peptide substrate (3H-SAM Flashplate)
# Conditions: Biochemical potencies, classification codes; read-out: Biochem IC50
# Chain of Human CARM1 (PRMT4) (Q86X55 other isoform, or with tags, fused parts or gaps isoform Q86X55-1): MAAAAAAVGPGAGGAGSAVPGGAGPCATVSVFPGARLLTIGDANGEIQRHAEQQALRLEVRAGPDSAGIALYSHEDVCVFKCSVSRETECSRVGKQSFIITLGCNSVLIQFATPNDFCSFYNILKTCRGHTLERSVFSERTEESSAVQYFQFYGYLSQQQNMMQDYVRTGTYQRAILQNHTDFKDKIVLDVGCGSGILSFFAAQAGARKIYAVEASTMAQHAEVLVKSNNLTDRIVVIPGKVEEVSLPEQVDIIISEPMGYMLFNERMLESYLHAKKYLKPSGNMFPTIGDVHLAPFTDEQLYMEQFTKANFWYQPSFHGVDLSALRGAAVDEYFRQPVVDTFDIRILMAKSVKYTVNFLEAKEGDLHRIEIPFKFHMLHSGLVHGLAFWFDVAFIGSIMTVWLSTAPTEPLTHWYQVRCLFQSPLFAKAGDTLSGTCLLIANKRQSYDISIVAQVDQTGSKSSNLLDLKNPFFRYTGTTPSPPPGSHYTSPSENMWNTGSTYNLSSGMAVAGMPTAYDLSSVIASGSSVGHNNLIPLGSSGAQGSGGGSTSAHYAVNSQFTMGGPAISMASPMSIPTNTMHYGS
row,IC50 [nM],SMILES
1,< 100,CNCC(O)COc1cccc(-c2nc(NC3CCCC3)c(C)c(-c3c(C)noc3C)n2)c1 (stereo not drawn) [Example 241-1a]
2,< 100,CCO[C@@H]1CCC[C@H]1N(CC)c1nc(-c2cc(OC[C@H](O)CNC)ccc2Cl)nc(-c2c(C)noc2C)c1C [Example 241-3]
3,< 100,CCO[C@H]1CCC[C@H]1Nc1nc(-c2cc(OC[C@H](O)CNC)ccc2Cl)nc(-c2c(C)noc2C)c1C [Example 242-3]
4,< 100,CNCC(O)COc1cccc(-c2nc(NC3CCN(C(=O)C4CC4)C3)c(C)c(-c3c(C)noc3C)n2)c1 (stereo not drawn) [Example 243-1a]
5,< 100,CNC[C@@H](O)COc1ccc(Cl)c(-c2nc(-c3c(C)noc3C)c(Cl)c(N3Cc4nc(C)sc4C3)n2)c1 [Example 243-3]
6,< 100,CNCC(O)COc1cccc(-c2nc(NC3CCN(C(=O)N(C)C)CC3)c(C)c(-c3c(C)noc3C)n2)c1 (stereo not drawn) [Example 244-1a]
7,< 100,CNC[C@@H](O)COc1ccc(F)c(-c2nc(-c3c(C)noc3C)c(C)c(N3Cc4cc(OC)cnc4C3)n2)c1 [Example 244-3]
8,< 100,CNCC(O)COc1cccc(-c2nc(NC3CCN(C(=O)C4CC4)CC3)c(C)c(-c3c(C)noc3C)n2)c1 (stereo not drawn) [Example 245-1a]
9,< 100,CNC[C@@H](O)COc1ccc(Cl)c(-c2nc(-c3c(C)noc3C)c(C)c(N3Cc4cnc(C)nc4C3)n2)c1 [Example 245-3]
10,< 100,CNCC(O)COc1cccc(-c2nc(NC3CCCN(C4COC4)C3)c(C)c(-c3c(C)noc3C)n2)c1 (stereo not drawn) [Example 246-1a]
11,< 100,CNC[C@@H](O)COc1ccc(Cl)c(-c2nc(-c3c(C)noc3C)c(C)c(N3CC4(CCC4)C3)n2)c1 [Example 246-3]
12,< 100,CNCC(O)COc1cccc(-c2nc(NC3CCCN(C(=O)C4CC4)C3)c(C)c(-c3c(C)noc3C)n2)c1 (stereo not drawn) [Example 247-1a]
13,< 100,CNC[C@@H](O)COc1ccc(C(F)(F)F)c(-c2nc(-c3c(C)noc3C)c(C)c(N3Cc4cncnc4C3)n2)c1 [Example 247-3]
14,< 100,CNCC(O)COc1cccc(-c2nc(NCC3CCN(C(=O)N(C)C)CC3)c(C)c(-c3c(C)noc3C)n2)c1 (stereo not drawn) [Example 248-1a]
15,< 100,CNC[C@@H](O)COc1ccc(Cl)c(-c2nc(-c3c(C)noc3C)c(C)c(N3Cc4cc(Br)cnc4C3)n2)c1 [Example 248-3]
16,< 100,CNCC(O)COc1cccc(-c2nc(NCC3CCN(C(=O)C4CC4)CC3)c(C)c(-c3c(C)noc3C)n2)c1 (stereo not drawn) [Example 249-1a]
17,< 100,CNC[C@@H](O)COc1ccc(Cl)c(-c2nc(-c3c(C)noc3C)cc(N3CC4(CCOCC4)C3)n2)c1 [Example 249-3]
18,< 100,CNCC(O)COc1cccc(-c2nc(N[C@@H]3CCC[C@@H]3O)c(C)c(-c3c(C)noc3C)n2)c1 (stereo partly drawn) [Example 250-1a]
19,< 100,CNC[C@@H](O)COc1ccc(Cl)c(-c2nc(-c3c(C)noc3C)cc(N3Cc4cnn(C)c4C3)n2)c1 [Example 250-3]
20,< 100,CNCC(O)COc1cccc(-c2nc(-c3c(C)noc3C)c(C)c(N3CCC4(CC3)CN(C(=O)OC)C4)n2)c1 (stereo not drawn) [Example 251-1a]
21,< 100,CNC[C@@H](O)COc1ccc(Cl)c(-c2nc(-c3c(C)noc3C)cc(N3Cc4nccnc4C3)n2)c1 [Example 251-3]

row,IC50 [nM],SMILES
1,< 100,CNCC(O)COc1cccc(-c2nc(-c3c(C)noc3C)c(C)c(N3CCC4(CC3)CN(C(=O)N(C)C)C4)n2)c1 (stereo not drawn) [Example 252-1a]
2,< 100,CNC[C@@H](O)COc1ccc(Cl)c(-c2nc(-c3c(C)noc3C)c(C)c(N3Cc4nn(C)c(C)c4C3)n2)c1 [Example 252-3]
3,< 100,CCS(=O)(=O)N1CC2(CCN(c3nc(-c4cccc(OCC(O)CNC)c4)nc(-c4c(C)noc4C)c3C)CC2)C1 (stereo not drawn) [Example 253-1a]
4,< 100,CCO[C@@H]1CCC[C@@H]1Nc1nc(-c2cc(OC[C@H](O)CNC)ccc2Cl)nc(-c2c(C)noc2C)c1C [Example 253-3]
5,< 100,CNCC(O)COc1cccc(-c2nc(N[C@H]3C[C@H](O)C3)c(C)c(-c3c(C)noc3C)n2)c1 (stereo partly drawn) [Example 254-1a]
6,< 100,CCO[C@@H]1CCC[C@@H]1N(CC)c1nc(-c2cc(OC[C@H](O)CNC)ccc2Cl)nc(-c2c(C)noc2C)c1C [Example 254-3]
7,< 100,CNCC(O)COc1cccc(-c2nc(N[C@H]3C[C@@](C)(O)C3)c(C)c(-c3c(C)noc3C)n2)c1 (stereo partly drawn) [Example 255-1a]
8,< 100,CCO[C@H]1CCC[C@H]1N(CC)c1nc(-c2cc(OC[C@H](O)CNC)ccc2Cl)nc(-c2c(C)noc2C)c1C [Example 255-3]
9,< 100,CNCC(O)COc1cccc(-c2nc(N[C@H]3C[C@@H](O)C3)c(C)c(-c3c(C)noc3C)n2)c1 (stereo partly drawn) [Example 256-1a]
10,< 100,CNCC(O)COc1cccc(-c2nc(NC3CCOCC3)c(C)c(-c3c(CO)noc3C)n2)c1 (stereo not drawn) [Example 256-3]
11,< 100,CNC[C@@H](O)COc1ccc(Cl)c(-c2nc(N[C@@H]3CCO[C@@H](C)C3)c(C)c(-c3c(C)noc3C)n2)c1 [Example 257-3]
12,< 100,CNCC(O)COc1cccc(-c2nc(NC[C@H]3COCCN3C(=O)N(C)C)c(C)c(-c3c(C)noc3C)n2)c1 (stereo partly drawn) [Example 258-1a]
13,< 100,CNC[C@@H](O)COc1ccc(Cl)c(-c2nc(NC3CCN(C)CC3(F)F)c(C)c(-c3c(C)noc3C)n2)c1 (stereo partly drawn) [Example 258-3]
14,< 100,CNCC(O)COc1cccc(-c2nc(OCC3CCN(C(=O)OCc4ccccc4)CC3)c(C)c(-c3c(C)noc3C)n2)c1 (stereo not drawn) [Example 259-1a]
15,< 100,CNC[C@@H](O)COc1ccc(Cl)c(-c2nc(-c3c(C)noc3C)c(C)c(N3Cc4cnc(C5CC5)nc4C3)n2)c1 [Example 259-3]
16,< 100,CNCC(O)COc1cccc(-c2nc(N[C@@H]3CCN(C4CC4)C[C@@H]3F)c(C)c(-c3c(C)noc3C)n2)c1 (stereo partly drawn) [Example 260-1a]
17,< 100,CNC[C@@H](O)COc1ccc(F)c(-c2nc(-c3c(C)noc3C)c(C)c(N3Cc4cncnc4C3)n2)c1 [Example 260-3]
18,< 100,CNCC(O)COc1cccc(-c2nc(N[C@@H]3CCN(C4CC4)C[C@H]3F)c(C)c(-c3c(C)noc3C)n2)c1 (stereo partly drawn) [Example 261-1a]
19,< 100,CNC[C@@H](O)COc1ccc(Cl)c(-c2nc(-c3c(C)noc3C)c(F)c(N3CC4(CCOCC4)C3)n2)c1 [Example 261-3]
20,< 100,CNCC(O)COc1cccc(-c2nc(NCC3CCN(C4COC4)CC3)c(C)c(-c3c(C)noc3C)n2)c1 (stereo not drawn) [Example 262-1a]
21,< 100,CNCC(O)COc1cccc(-c2nc(NC3CCN(C4COC4)CC3)c(C)c(-c3c(C)noc3C)n2)c1 (stereo not drawn) [Example 263-1a]

row,IC50 [nM],SMILES
1,< 100,CNC[C@@H](O)COc1ccc(Cl)c(-c2nc(-c3c(C)noc3C)c(C)c(N3Cc4cnc(C(F)(F)F)nc4C3)n2)c1 [Example 263-3]
2,< 100,CNCC(O)COc1cccc(-c2nc(NC3CN(C(=O)C4CC4)C3)c(C)c(-c3c(C)noc3C)n2)c1 (stereo not drawn) [Example 264-1a]
3,< 100,CNC[C@@H](O)COc1ccc(Cl)c(-c2nc(-c3c(C)noc3C)c(C)c(N3Cc4cnc(C(C)C)nc4C3)n2)c1 [Example 264-3]
4,< 100,CNC[C@@H](O)COc1ccc(Cl)c(-c2nc(-c3c(C)noc3C)c(C)c(N3Cc4cnn(CC(F)(F)F)c4C3)n2)c1 [Example 265-3]
5,< 100,CNC[C@@H](O)COc1ccc(F)c(-c2nc(-c3c(C)noc3C)c(C)c(N3Cc4cccc(F)c4C3)n2)c1 [Example 266-3]
6,< 100,CNCC(O)COc1cccc(-c2nc(N[C@H]3COC(=O)C3)c(C)c(-c3c(C)noc3C)n2)c1 (stereo partly drawn) [Example 267-1a]
7,< 100,CNC[C@@H](O)COc1ccc(Cl)c(-c2nc(-c3c(C)noc3C)c(C)c(N3Cc4cccc(F)c4C3)n2)c1 [Example 267-3]
8,< 100,CNCC(O)COc1cccc(-c2nc(N[C@@H]3COC(=O)C3)c(C)c(-c3c(C)noc3C)n2)c1 (stereo partly drawn) [Example 268-1a]
9,< 100,CNC[C@@H](O)COc1ccc(Cl)c(-c2nc(-c3c(C)noc3C)c(C)c(C3CCOCC3)n2)c1 [Example 268-3]
10,< 100,CNCC(O)COc1cccc(-c2nc(NC3CCOCC3C)c(C)c(-c3c(C)noc3C)n2)c1 (stereo not drawn) [Example 269-1a]
11,< 100,CNC[C@@H](O)COc1ccc(F)c(-c2nc(-c3c(C)noc3C)c(C)c(N3CC4(CCCCO4)C3)n2)c1 [Example 269-3]
12,< 100,CNCC(O)COc1ccc(Cl)c(-c2nc(NC3CCN(C(=O)OC)CC3)c(C)c(-c3c(C)noc3C)n2)c1 (stereo not drawn) [Example 270-1a]
13,< 100,CNC[C@@H](O)COc1ccc(Cl)c(-c2nc(-c3c(C)noc3C)c(C)c(N3Cc4cnn(C5CC5)c4C3)n2)c1 [Example 270-3]
14,< 100,CNCC(O)COc1cccc(-c2nc(N[C@@H]3CCOC[C@@H]3F)c(C)c(-c3c(C)noc3C)n2)c1 (stereo partly drawn) [Example 271-1a]
15,< 100,CNC[C@@H](O)COc1ccc(Cl)c(-c2nc(-c3c(C)noc3C)c(C)c(N3Cc4cn(C(C)C)nc4C3)n2)c1 [Example 272-3]
16,< 100,CCS(=O)(=O)N1CC(Nc2nc(-c3cccc(OCC(O)CNC)c3)nc(-c3c(C)noc3C)c2C)C1 (stereo not drawn) [Example 273-1a]
17,< 100,CNCC(O)COc1ccc(Cl)c(-c2nc(NC3CCOCC3)c(C)c(-c3c(CO)noc3C)n2)c1 (stereo not drawn) [Example 273-3]
18,< 100,CNC[C@@H](O)COc1ccc(F)c(-c2nc(-c3c(C)noc3C)cc(N3Cc4nccnc4C3)n2)c1 [Example 274-3]
19,< 100,CNCC(O)COc1cccc(-c2nc(NC3CN(C(=O)OC)C3)c(C)c(-c3c(C)noc3C)n2)c1 (stereo not drawn) [Example 275-1a]

row,SMILES,IC50 [nM]
1,CNCC(O)COc1cccc(-c2nc(NC3C[C@H]4CC[C@@H](C3)N4C(=O)OC)c(C)c(-c3c(C)noc3C)n2)c1 (stereo partly drawn) [Example 242-1a],< 100
2,CNCC(O)COc1cccc(-c2nc(N[C@@H]3C[C@H]4CC[C@@H](C3)N4C(=O)OC)c(C)c(-c3c(C)noc3C)n2)c1 (stereo partly drawn) [Example 265-1a],< 100
3,CNCC(O)COc1cccc(-c2nc(N[C@H]3C[C@H]4CC[C@@H](C3)N4C(=O)OC)c(C)c(-c3c(C)noc3C)n2)c1 (stereo partly drawn) [Example 266-1a],< 100
4,CNC[C@H](O)COc1ccc(Cl)c(-c2nc(-c3c(C)noc3C)c(C)c(N3Cc4cn(C(C)C)nc4C3)n2)c1 [Example 272-1a],< 100
5,CNCC(O)COc1cccc(-c2nc(NC[C@H]3COCCN3CC(F)F)c(C)c(-c3c(C)noc3C)n2)c1 (stereo partly drawn) [Example 274-1a],< 100
